Measured values from ChEMBL document CHEMBL4425158, “Synthesis, structure-activity relationships and biological evaluation of 4,5,6,7-tetrahydropyrazolopyrazines as metabotropic glutamate receptor 5 negative allosteric modulators” (Bioorg Med Chem Lett, 2016).
pIC50: −log10 of the molar value. Converted amounts (≈) assume the structure as drawn.

Columns and labels:
[1] = target: Metabotropic glutamate receptor 5 (Homo sapiens, UniProt P41594); assay: Negative allosteric modulation of human recombinant mGluR5 expressed in HEK293 cells assessed as L-glutamate-induced intracellular calcium mobilization incubated for 20 mins before L-glutamate addition; assay type: functional, cell-based
[2] = Aqueous solubility of the compound at pH 1.2; assay type: physicochemical
[3] = Aqueous solubility of the compound at pH 7.4; assay type: physicochemical

Metabotropic glutamate receptor 5, sequence (P41594 whole entry): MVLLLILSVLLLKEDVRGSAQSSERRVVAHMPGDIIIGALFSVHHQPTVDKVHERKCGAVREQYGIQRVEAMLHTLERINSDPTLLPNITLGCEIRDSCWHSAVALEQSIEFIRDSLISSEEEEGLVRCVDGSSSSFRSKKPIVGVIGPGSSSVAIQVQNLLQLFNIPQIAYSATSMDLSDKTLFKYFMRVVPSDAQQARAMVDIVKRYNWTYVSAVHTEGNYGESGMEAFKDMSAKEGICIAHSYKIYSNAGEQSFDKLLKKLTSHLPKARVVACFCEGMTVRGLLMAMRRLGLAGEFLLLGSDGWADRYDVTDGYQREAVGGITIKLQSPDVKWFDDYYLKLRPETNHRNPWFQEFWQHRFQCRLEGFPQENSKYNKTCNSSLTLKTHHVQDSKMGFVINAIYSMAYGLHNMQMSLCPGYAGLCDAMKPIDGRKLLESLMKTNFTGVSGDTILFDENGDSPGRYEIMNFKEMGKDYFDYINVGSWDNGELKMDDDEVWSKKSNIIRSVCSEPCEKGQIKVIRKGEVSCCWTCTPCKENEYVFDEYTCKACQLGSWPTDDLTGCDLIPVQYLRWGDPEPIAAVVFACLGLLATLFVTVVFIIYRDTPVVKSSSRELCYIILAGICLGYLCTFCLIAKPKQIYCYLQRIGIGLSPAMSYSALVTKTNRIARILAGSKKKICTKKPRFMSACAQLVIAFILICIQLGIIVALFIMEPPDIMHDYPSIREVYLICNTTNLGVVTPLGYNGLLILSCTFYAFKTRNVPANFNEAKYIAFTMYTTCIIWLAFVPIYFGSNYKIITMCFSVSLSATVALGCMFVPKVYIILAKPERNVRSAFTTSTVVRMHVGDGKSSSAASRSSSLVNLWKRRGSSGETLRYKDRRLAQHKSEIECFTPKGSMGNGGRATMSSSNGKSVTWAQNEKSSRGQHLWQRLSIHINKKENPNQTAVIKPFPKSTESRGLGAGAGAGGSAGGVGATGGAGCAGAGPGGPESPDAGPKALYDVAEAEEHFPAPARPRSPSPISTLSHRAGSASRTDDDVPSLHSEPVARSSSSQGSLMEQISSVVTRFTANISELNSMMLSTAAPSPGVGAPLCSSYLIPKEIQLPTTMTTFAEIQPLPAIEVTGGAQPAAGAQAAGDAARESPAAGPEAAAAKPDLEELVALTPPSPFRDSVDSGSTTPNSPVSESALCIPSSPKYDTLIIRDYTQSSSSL

| Structure (SMILES) | pIC50 [1] | solubility [2] [µg/mL] | solubility [3] [µg/mL] |
| --- | --- | --- | --- |
| CC(C)(C)c1cc2n(n1)CCN(C(=O)c1ccc3ccccc3c1)C2 | 6.32 | – | – |
| O=C(c1ccccc1)N1CCn2nc(-c3ccncc3)cc2C1 | 5.89 | – | – |
| Cc1cccc(C(=O)N2CCn3nc(-c4ccc(F)cn4)cc3C2)c1 | 6.82 | – | – |
| O=C(c1ccccc1)N1CCn2nc(-c3ccccc3)cc2C1 | 6.90 | 4 (≈ 13.2 µM) | 2 (≈ 6.59 µM) |

Continued, values first:

| pIC50 [1] | solubility [2] [µg/mL] | solubility [3] [µg/mL] | Structure (SMILES) |
| --- | --- | --- | --- |
| 6.35 | – | – | Cc1ccnc(-c2cc3n(n2)CCN(C(=O)c2ccccc2)C3)c1 |
| < 5.00 | – | – | Cc1cccnc1-c1cc2n(n1)CCN(C(=O)c1ccccc1)C2 |
